What was measured:
EC1010 (CMY-6) [1] = test: Tigemonam potentiation (MPC@4), EC1010; assay type: cell-based; settings: BLI with tigemonam at 4 μg/mL
ec302 (TEM-10) [2] = test: Tigemonam potentiation (MPC@4), ec302; assay type: cell-based
PAM1032/KPC-2 = test: Biapenem potentiation MPC64, PAM1032/KPC-2 (efflux proficient); assay type: cell-based, Pseudomonas aeruginosa; settings: BLI to decrease MIC of biapenem 64-fold; MexAB-OprM overexpressed
Description: Efflux of BLIs from Pseudomonas aeruginosa by the MexAB-OprM efflux pump was also evaluated. […] Due to expression of KPC-2 both strains became resistant to biapenem. […] Potency of BLIs to potentiate biapenem in these strains was determined. […] The ratio of MPC64 values for each BLI in PAM1032/KPC-2 (efflux proficient) and PAM1154/KPC-2 (efflux deficient) was determined to generate the Efflux Index (EI).

ec302 (TEM-10) [3] = test: Aztreonam potentiation (MPC@4), ec302; assay type: cell-based; settings: BLI with aztreonam at 4 μg/mL
Pa AmpC = Pa AmpC (Pseudomonas aeruginosa, UniProt P24735); test: Ki, nitrocefin cleavage by purified enzyme, Pa AmpC; assay type: biochemical; settings: nitrocefin reporter substrate; read-out: Ki (Pa AmpC, NCF)
Method in brief: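 Absorbance at 490 nm, recorded every 10 sec for 10 min after nitrocefin addition, reported substrate cleavage. Inhibitor at various concentrations had first been incubated with purified enzyme for 10 min at room temperature, and Ki values were determined from these profiles.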

KP1005 (CTX-M-14) [4] = test: Tigemonam potentiation (MPC@4), KP1005; assay type: cell-based; settings: BLI with tigemonam at 4 μg/mL
ec308 (SHV-5) [5] = test: Tigemonam potentiation (MPC@4), ec308; assay type: cell-based
ECL1002 [6] = test: Tigemonam potentiation (MPC@4), ECL1002; assay type: cell-based; settings: BLI with tigemonam at 4 μg/mL
P99 = P99 (Enterobacter cloacae, UniProt P05364); test: Ki, nitrocefin cleavage by purified enzyme, P99; assay type: biochemical; settings: nitrocefin reporter substrate; read-out: Ki (P99, NCF)
Method in brief: (§1)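 Steps: enzyme plus inhibitor dilutions in reaction buffer; 10 min at room temperature; add nitrocefin; read absorbance at 490 nm each 10 sec for 10 min.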

ECL1002 [7] = test: Aztreonam potentiation (MPC@4), ECL1002; assay type: cell-based; settings: BLI with aztreonam at 4 μg/mL
KP1086 (OXA-48) = test: Biapenem potentiation (MPC@1), KP1086; settings: BLI with biapenem at 1 μg/mL
KP1005 (CTX-M-14) [8] = test: Aztreonam potentiation (MPC@4), KP1005; assay type: cell-based; settings: BLI with aztreonam at 4 μg/mL
ec308 (SHV-5) [9] = test: Aztreonam potentiation (MPC@4), ec308; assay type: cell-based; settings: BLI with aztreonam at 4 μg/mL
EC1010 (CMY-6) [10] = test: organism not typed; assay type: cell-based
KP1010 (SHV-12) [11] = test: Aztreonam potentiation (MPC@4), KP1010; assay type: cell-based
KP1009 (CTX-M-15) [12] = test: Tigemonam potentiation (MPC@4), KP1009; assay type: cell-based; settings: BLI with tigemonam at 4 μg/mL
KP1010 (SHV-12) [13] = test: Tigemonam potentiation (MPC@4), KP1010; assay type: cell-based
KP1004 (KPC-2) [14] = test: Biapenem potentiation (MPC@1), KP1004; settings: BLI with biapenem at 1 μg/mL
KP1009 (CTX-M-15) [15] = test: organism not typed; assay type: cell-based
KPC-2 = KPC-2 (Klebsiella pneumoniae, UniProt Q9F663); test: Ki, nitrocefin cleavage by purified enzyme, KPC-2; assay type: biochemical; settings: nitrocefin reporter substrate; read-out: Ki (KPC-2, NCF)
Method in brief: as §1

SHV-12 = SHV-12 (Klebsiella pneumoniae, UniProt P0AD64, E235K/G234S/L31Q); test: Ki, nitrocefin cleavage by purified enzyme, SHV-12; assay type: biochemical; settings: nitrocefin reporter substrate; read-out: Ki (SHV-12, NCF)
Method in brief: as §1

OXA-48 = OXA-48 (Klebsiella pneumoniae, UniProt Q6XEC0); test: Ki, nitrocefin cleavage by purified enzyme, OXA-48; assay type: biochemical; settings: nitrocefin reporter substrate; read-out: Ki (OXA-48, NCF)
Method in brief: as §1

CTX-M-14 = CTX-M-14 (Escherichia coli, UniProt Q9L5C7); test: Ki, nitrocefin cleavage by purified enzyme, CTX-M-14; assay type: biochemical; settings: nitrocefin reporter substrate; read-out: Ki (CTX-M-14, NCF)
Method in brief: as §1

KP1004 (KPC-2) [16] = test: Aztreonam potentiation (MPC@4), KP1004; assay type: cell-based; settings: BLI with aztreonam at 4 μg/mL

Chain of Pa AmpC (P24735 27-397): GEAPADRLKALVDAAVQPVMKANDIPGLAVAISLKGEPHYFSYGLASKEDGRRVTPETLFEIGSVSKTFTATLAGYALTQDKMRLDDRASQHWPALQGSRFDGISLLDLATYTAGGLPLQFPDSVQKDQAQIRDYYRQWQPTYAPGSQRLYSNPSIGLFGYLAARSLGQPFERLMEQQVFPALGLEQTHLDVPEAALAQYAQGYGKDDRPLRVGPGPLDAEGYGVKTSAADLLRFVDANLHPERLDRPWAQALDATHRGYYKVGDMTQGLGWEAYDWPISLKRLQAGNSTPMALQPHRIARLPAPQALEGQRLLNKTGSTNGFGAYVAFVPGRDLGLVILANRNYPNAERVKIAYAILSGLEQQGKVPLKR
Chain of CTX-M-14 (Q9L5C7 29-291): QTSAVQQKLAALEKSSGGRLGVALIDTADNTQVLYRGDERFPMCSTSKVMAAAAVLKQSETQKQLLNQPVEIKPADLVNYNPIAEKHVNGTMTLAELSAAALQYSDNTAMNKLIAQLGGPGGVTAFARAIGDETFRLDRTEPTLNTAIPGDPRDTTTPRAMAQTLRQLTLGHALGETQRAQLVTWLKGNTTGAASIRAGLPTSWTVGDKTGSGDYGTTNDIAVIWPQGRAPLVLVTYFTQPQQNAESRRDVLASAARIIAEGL
Chain of P99 (P05364 21-381): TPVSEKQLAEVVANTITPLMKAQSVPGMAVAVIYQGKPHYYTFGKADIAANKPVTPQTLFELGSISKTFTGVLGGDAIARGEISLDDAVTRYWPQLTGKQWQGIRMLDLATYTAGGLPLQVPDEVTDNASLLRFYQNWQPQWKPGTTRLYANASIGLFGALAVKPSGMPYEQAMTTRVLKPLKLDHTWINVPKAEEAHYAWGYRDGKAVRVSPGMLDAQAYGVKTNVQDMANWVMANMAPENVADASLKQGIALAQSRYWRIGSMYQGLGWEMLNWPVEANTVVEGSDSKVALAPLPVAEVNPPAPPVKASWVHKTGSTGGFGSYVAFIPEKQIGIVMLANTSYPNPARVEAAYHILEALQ
Chain of KPC-2 (Q9F663 25-293, looked up, species assumed): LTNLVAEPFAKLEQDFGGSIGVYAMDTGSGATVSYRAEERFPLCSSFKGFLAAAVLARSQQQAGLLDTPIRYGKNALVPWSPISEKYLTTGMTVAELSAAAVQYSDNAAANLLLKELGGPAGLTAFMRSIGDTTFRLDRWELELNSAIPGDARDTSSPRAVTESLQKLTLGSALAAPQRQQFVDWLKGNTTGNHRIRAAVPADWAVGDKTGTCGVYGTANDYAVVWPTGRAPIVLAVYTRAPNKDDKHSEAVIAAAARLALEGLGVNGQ
Chain of OXA-48 (Q6XEC0 23-265, looked up, species assumed): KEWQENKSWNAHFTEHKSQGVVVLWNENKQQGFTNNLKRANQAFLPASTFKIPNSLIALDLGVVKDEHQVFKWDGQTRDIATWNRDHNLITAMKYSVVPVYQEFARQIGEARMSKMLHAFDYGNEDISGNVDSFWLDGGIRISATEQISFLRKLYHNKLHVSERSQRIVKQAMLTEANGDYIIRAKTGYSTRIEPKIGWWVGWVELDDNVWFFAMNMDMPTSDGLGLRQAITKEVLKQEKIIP
Chain of SHV-12 (P0AD64 22-286 L31Q/G234S/E235K): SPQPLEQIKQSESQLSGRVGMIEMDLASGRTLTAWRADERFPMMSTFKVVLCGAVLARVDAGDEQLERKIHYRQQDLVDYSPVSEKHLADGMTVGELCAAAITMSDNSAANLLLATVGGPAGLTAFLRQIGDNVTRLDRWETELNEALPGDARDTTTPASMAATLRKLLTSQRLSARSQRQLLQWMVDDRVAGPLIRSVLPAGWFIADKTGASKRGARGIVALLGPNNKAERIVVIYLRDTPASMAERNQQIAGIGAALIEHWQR

SMILES | TIG MPC4 CMY-6 EC1010 (EC1010 (CMY-6) [1]) | TIG MPC4 TEM-10 ec302 (ec302 (TEM-10) [2]) | PAM1032/KPC-2 Biapenem MPC64 (PAM1032/KPC-2) | AZT MPC4 TEM-10 ec302 (ec302 (TEM-10) [3]) | Ki (Pa AmpC) | TIG MPC4 CTX-M-14 KP1005 (KP1005 (CTX-M-14) [4]) | TIG MPC4 SHV-5 ec308 (ec308 (SHV-5) [5]) | TIG MPC4 ECL1002 (ECL1002 [6]) | Ki (P99) | AZT MPC4 ECL1002 (ECL1002 [7]) | BPM MPC1 OXA-48 KP1086 (KP1086 (OXA-48)) | AZT MPC4 CTX-M-14 KP1005 (KP1005 (CTX-M-14) [8]) | AZT MPC4 SHV-5 ec308 (ec308 (SHV-5) [9]) | AZT MPC4 CMY-6 EC1010 (EC1010 (CMY-6) [10]) | AZT MPC4 SHV-12 KP1010 (KP1010 (SHV-12) [11]) | TIG MPC4 CTX-M-15 KP1009 (KP1009 (CTX-M-15) [12]) | TIG MPC4 SHV-12 KP1010 (KP1010 (SHV-12) [13]) | BPM MPC1 KP1004 KPC-2 (KP1004 (KPC-2) [14]) | Ki (CTX-M-14) | also measured
O=C(CSC1CNC1)N[C@H]1Cc2cccc(C(=O)O)c2OB1O [B, reference compound] | X (MIC of less than 1 μg/mL) | Z (key: X: MIC of less than 1 ng/mL; Y: MIC of 1 μg/mL to 10 μg/mL; Z: MIC of greater than 10 μg/mL) | 2.5 | Y (MIC of 1 μg/mL to 10 μg/mL) | 1 to 10 nM | Y (MIC of 1 μg/mL to 10 μg/mL) | Y (key: X: MIC of less than 1 ng/mL; Y: MIC of 1 μg/mL to 10 μg/mL; Z: MIC of greater than 10 μg/mL) | – | – | – | – | – | – | – | – | – | – | – | – | –
O=C(CSC(F)F)N[C@H]1Cc2cccc(C(=O)O)c2OB1O [C, reference compound] | – | Y (key: X: MIC of less than 1 ng/mL; Y: MIC of 1 μg/mL to 10 μg/mL; Z: MIC of greater than 10 μg/mL) | 80 | – | < 1 nM | X (MIC of less than 1 μg/mL) | X (key: X: MIC of less than 1 μg/mL; Y: MIC of 1 μg/mL to 10 μg/mL; Z: MIC of greater than 10 μg/mL) | Y (MIC of 1 μg/mL to 10 μg/mL) | 1 to 10 nM | Y (MIC of 1 μg/mL to 10 μg/mL) | Y (MIC of 1 μg/mL to 10 μg/mL) | X (MIC of less than 1 ng/mL) | X (MIC of less than 1 ng/mL) | X (key: X: MIC of less than 1 ng/mL; Y: MIC of 1 μg/mL to 10 μg/mL; Z: MIC of greater than 10 μg/mL) | X (key: X: MIC of less than 1 ng/mL; Y: MIC of 1 μg/mL to 10 μg/mL; Z: MIC of greater than 10 μg/mL) | X (MIC of less than 1 μg/mL) | X (key: X: MIC of less than 1 μg/mL; Y: MIC of 1 μg/mL to 10 μg/mL; Z: MIC of greater than 10 μg/mL) | X (MIC of less than 1 μg/mL) | – | –
O=C(O)CC(=O)N[C@H]1Cc2cccc(C(=O)O)c2OB1O [D, reference compound] | X (MIC of less than 1 μg/mL) | Z (key: X: MIC of less than 1 ng/mL; Y: MIC of 1 μg/mL to 10 μg/mL; Z: MIC of greater than 10 μg/mL) | – | Z (MIC of greater than 10 μg/mL) | > 10 nM | Z (MIC of greater than 10 μg/mL) | Y (key: X: MIC of less than 1 ng/mL; Y: MIC of 1 μg/mL to 10 μg/mL; Z: MIC of greater than 10 μg/mL) | X (MIC of less than 1 μg/mL) | > 10 nM | Y (MIC of 1 μg/mL to 10 μg/mL) | Y (MIC of 1 μg/mL to 10 μg/mL) | Y (MIC of 1 μg/mL to 10 μg/mL) | Y (MIC of 1 μg/mL to 10 μg/mL) | – | Y (key: X: MIC of less than 1 ng/mL; Y: MIC of 1 μg/mL to 10 μg/mL; Z: MIC of greater than 10 μg/mL) | Y (MIC of 1 μg/mL to 10 μg/mL) | Y (key: X: MIC of less than 1 ng/mL; Y: MIC of 1 μg/mL to 10 μg/mL; Z: MIC of greater than 10 μg/mL) | X (MIC of less than 1 μg/mL) | < 1 nM | AZT MPC4 CTX-M-15 KP1009 (KP1009 (CTX-M-15) [15]): Y (key: X: MIC of less than 1 ng/mL; Y: MIC of 1 μg/mL to 10 μg/mL; Z: MIC of greater than 10 μg/mL); Ki (KPC-2): > 10 nM; Ki (SHV-12): 1 to 10 nM; Ki (OXA-48): < 1 nM; AZT MPC4 KPC-2 KP1004 (KP1004 (KPC-2) [16]): Y (MIC of 1 μg/mL to 10 μg/mL)
CNC(=O)CC(=O)N[C@H]1Cc2cccc(C(=O)O)c2OB1O [G, reference compound] | X (MIC of less than 1 μg/mL) | Z (key: X: MIC of less than 1 ng/mL; Y: MIC of 1 μg/mL to 10 μg/mL; Z: MIC of greater than 10 μg/mL) | 40 | Y (MIC of 1 μg/mL to 10 μg/mL) | – | Y (MIC of 1 μg/mL to 10 μg/mL) | Y (key: X: MIC of less than 1 ng/mL; Y: MIC of 1 μg/mL to 10 μg/mL; Z: MIC of greater than 10 μg/mL) | – | – | – | – | Y (MIC of 1 μg/mL to 10 μg/mL) | – | – | – | – | – | – | < 1 nM | –
Nc1nnc(C(=O)N[C@H]2Cc3cccc(C(=O)O)c3OB2O)s1 [H, reference compound] | – | Y (key: X: MIC of less than 1 ng/mL; Y: MIC of 1 μg/mL to 10 μg/mL; Z: MIC of greater than 10 μg/mL) | 80 | X (MIC of less than 1 ng/mL) | < 1 nM | Y (MIC of 1 μg/mL to 10 μg/mL) | X (key: X: MIC of less than 1 μg/mL; Y: MIC of 1 μg/mL to 10 μg/mL; Z: MIC of greater than 10 μg/mL) | X (MIC of less than 1 μg/mL) | – | – | Y (MIC of 1 μg/mL to 10 μg/mL) | Y (MIC of 1 μg/mL to 10 μg/mL) | X (MIC of less than 1 ng/mL) | X (key: X: MIC of less than 1 ng/mL; Y: MIC of 1 μg/mL to 10 μg/mL; Z: MIC of greater than 10 μg/mL) | X (key: X: MIC of less than 1 ng/mL; Y: MIC of 1 μg/mL to 10 μg/mL; Z: MIC of greater than 10 μg/mL) | X (MIC of less than 1 μg/mL) | X (key: X: MIC of less than 1 μg/mL; Y: MIC of 1 μg/mL to 10 μg/mL; Z: MIC of greater than 10 μg/mL) | X (MIC of less than 1 μg/mL) | – | –

From patent US9963467B2, “Boronic acid derivatives and therapeutic uses thereof” (Rempex Pharmaceuticals, Inc., priority 2014, dated 2018)
